SMILES strings stand for the structures.

The test system of one assay is HaCaT cells (EGFR expressing cell line). The assay is described as follows: HaCaT cell proliferation inhibitory activity (CellTiter-Glo, 72 hours). The format is cell-based. The settings on record: Homo sapiens. As for the experimental part: (§1) To evaluate the cell proliferation inhibitory activity of the compound according to the present invention on HER2 and EGFR kinases, the following method was performed using HER2 overexpressing cell lines (SK-BR-3, BT-474, and N-87) and EGFR expressing cell line (HaCaT).
(§2) McCOY'S 5A supplemented with 10% FBS was used for SK-BR-3 cells, RPMI-1640 medium supplemented with 20% FBS was used for BT-474 cancer cells, and RPMI-1640 medium supplemented with 10% FBS was used for N-87 cancer cells. DMEM supplemented with 10% FBS was used for HaCaT cells.
(§3) For SK-BR-3 cells, 5000 cells were aliquoted into each well of a white clear bottom 96 well plate (Corning) 48 hours before treatment with the compounds of Examples. For BT-474 cells, 5000 cells were aliquoted into each well of a white clear bottom 96 well plate (Corning) 48 hours before treatment with the compounds of Examples. For N-87 cells, 5000 cells were aliquoted into each well of a white clear bottom 96 well plate (Corning) 24 hours before treatment with the compounds of Examples. For HaCaT cells, 3000 cells were aliquoted into each well of a white clear bottom 96 well plate (Corning) 24 hours before treatment with the compounds of Examples. For SK-BR-3 cells and BT-474 cells, the compounds of Examples were diluted in dimethyl sulfoxide (three-fold dilution, a total of 11 concentrations) and injected each in an amount of 1 μl to a final concentration of 0.2 nM to 10 μM. For N-87 cells, the compounds of Examples were diluted in dimethyl sulfoxide (five-fold dilution, a total of 11 concentrations) and injected each in an amount of 0.5 μl to a final concentration of […] to 5 μM. For HaCaT cells, the compounds of Examples were diluted in dimethyl sulfoxide (three-fold dilution, a total of 11 concentrations) and injected each in an amount of 0.5 μl to a final concentration of 0.8 nM to 45 μM. For the measurement of living cells, the cells were stored at room temperature for 10 minutes using CellTiter-Glo cell viability reagent (Promega) after a certain period of time (SK-BR-3: 120 hours, BT-474: 120 hours, N-87: 72 hours, and HaCaT: 72 hours) post treatment with the compounds of Examples, and the luminescence intensity thereof was measured using a reader (SynergyNeo, Biotek). Each test was repeated three times.
(§4) The result values were calculated as a cell growth rate (%) compared to those of the control group. A graph was created using the GraphPad Prism version 5.0 program, and GI50 values were calculated.
As for `C=CC(=O)N1CCC(Oc2cc3c(Nc4cc(-c5ccc(C)o5)ccc4OC)ncnc3cc2OC)CC1` [Example 86, 1-(4-((7-methoxy-4-((2-methoxy-5-(5-methylfuran-2-yl)phenyl)amino)quinazolin-6-yl)oxy)piperidin-1-yl)prop-2-en-1-one], the GI50 was in the range of 150 to 1000 nM.

The test system of another assay is SK-BR-3 cells (HER2 overexpressing cell line). Briefly: SK-BR-3 cell proliferation inhibitory activity (CellTiter-Glo, 120 hours). The note with it: Homo sapiens. The format is cell-based. As for the experimental part:
as §1, §2, §3, §4
For the molecule `C=CC(=O)N1CCC(Oc2cc3c(Nc4cc(-c5ccccc5)ccc4OC)ncnc3cc2OC)CC1` [Example 65, 1-(4-((7-methoxy-4-((4-methoxy-[1,1′-biphenyl]-3-yl)amino)quinazolin-6-yl)oxy)piperidin-1-yl)prop-2-en-1-one], the GI50 is not above 150 nM.

Take `C=CC(=O)N1CC(Oc2cc3c(Nc4cc(-c5cccnc5)ccc4OC)ncnc3cc2OC)C1` [Example 6, 1-(3-((7-methoxy-4-((2-methoxy-5-(pyridin-3-yl)phenyl)amino)quinazolin-6-yl)oxy)azetidin-1-yl)prop-2-en-1-one]: the GI50 fell in the range of 150 to 1000 nM.

For the molecule `C=CC(=O)N1CCC(Oc2cc3c(Nc4cc(-c5ccoc5)ccc4OC)ncnc3cc2OC)C1` (stereo not drawn) [Example 64, 1-(3-((4-((5-(furan-3-yl)-2-methoxyphenyl)amino)-7-methoxy-quinazolin-6-yl)oxy)pyrrolidin-1-yl)prop-2-en-1-one], the GI50 was in the range of 150 to 1000 nM.

Take `C=CC(=O)N1CCC(Oc2cc3c(Nc4cc(-c5ccn6ncnc6c5)ccc4OC)ncnc3cc2OC)CC1` [Example 69, 1-(4-((4-((5-([1,2,4]triazolo[1,5-a]pyridin-7-yl)-2-methoxyphenyl)amino)-7-methoxy-quinazolin-6-yl)oxy)piperidin-1-yl)prop-2-en-1-one]: the GI50 was 150 to 1000 nM.

`C=CC(=O)N1CC(Oc2cc3c(Nc4cc(-c5cncs5)ccc4OC)ncnc3cc2OC)C1` [Example 46, 1-(3-((7-methoxy-4-((2-methoxy-5-(thiazol-5-yl)phenyl)amino)quinazolin-6-yl)oxy)azetidin-1-yl)prop-2-en-1-one]: the GI50 lay in the range of 150 to 1000 nM.

`COc1ccc(-c2ccco2)cc1Nc1ncnc2cc(OC)c(OC3CCN(C(=O)/C=C/CN(C)C)CC3)cc12` [Example 120, (E)-4-(dimethylamino) 1-(4-((4-((5-(furan-2-yl)-2-methoxyphenyl)amino)-7-methoxy-quinazolin-6-yl)oxy)piperidin-1-yl)but-2-en-1-one]: the GI50 lay in the range of 150 to 1000 nM.

`C=CC(=O)N1CC(Oc2cc3c(Nc4cc(-c5ccoc5)ccc4OC)ncnc3cc2OC)C1` [Example 45, 1-(3-((4-((5-(furan-3-yl)-2-methoxyphenyl)amino)-7-methoxy-quinazolin-6-yl)oxy)azetidin-1-yl)prop-2-en-1-one]: the GI50 is not above 150 nM.

Turning to `C=CC(=O)N1CC(Oc2cc3c(Nc4cc(-c5ccco5)ccc4OC)ncnc3cc2OC)C1` [Example 44, 1-(3-((4-((5-(furan-2-yl)-2-methoxyphenyl)amino)-7-methoxy-quinazolin-6-yl)oxy)azetidin-1-yl)prop-2-en-1-one], the GI50 is not above 150 nM.

With `C=CC(=O)N1CC(Oc2cc3c(Nc4cc(-c5ccccc5)ccc4OC)ncnc3cc2OC)C1` [Example 5, 1-(3-((7-methoxy-4-((4-methoxy-[1,1′-biphenyl]-3-yl)amino)quinazolin-6-yl)oxy)azetidin-1-yl)prop-2-en-1-one], the GI50 was not above 150 nM.

On to `C=CC(=O)N1CC(Oc2cc3c(Nc4cc(-c5ccsc5)ccc4OC)ncnc3cc2OC)C1` [Example 47, 1-(3-((7-methoxy-4-((2-methoxy-5-(thiophen-3-yl)phenyl)amino)quinazolin-6-yl)oxy)azetidin-1-yl)prop-2-en-1-one], for which the GI50 was not above 150 nM.

With `C=CC(=O)N1CC(Oc2cc3c(Nc4cc(-c5cnc6ccnn6c5)ccc4OC)ncnc3cc2OC)C1` [Example 32, 1-(3-((7-methoxy-4-((2-methoxy-5-(pyrazolo[1,5-a]pyrimidin-6-yl)phenyl)amino)quinazolin-6-yl)oxy)azetidin-1-yl)prop-2-en-1-one], the GI50 lay within 150 to 1000 nM.

These data come from patent US20240246940A1, “HETEROARYL DERIVATIVE COMPOUND AND USE THEREOF” (VORONOI INC., priority 2021, published 2024).
